Measured values as given in US5843481A, “Treatment of proliferative disorders, metastasaes, and drug resistant tumors with vanadate compounds and derivatives or analogues thereof” (priority 1994, dated 1998).
Entries after “also recorded” stand apart in the source; their conditions may differ.

What was measured:
[1] = system: fos; experiment: Northern blot analysis of fos mRNA expression in chondrocytes; format: cell-based, bovine; details: for expression of c-fos: stimulation, 1 hour, bovine chondrocytes, AA 3 μM; for fos expression in response to factors such as IL 1 or arachidonic acid: summary statement
Method: (§1) The cytokine interleukin 1 (IL 1) has been used to identify the intermediate second messengers which regulate the expression of fos and jun.
In order to elucidate this possibility, the effect of DPI on fos and jun mRNA levels induced by IL 1 was investigated. RNA from chondrocytes treated with IL 1 in the presence and absence of DPI were analyzed by Northern blot analysis using either fos or collagenase cDNA probes.
Since superoxides are rapidly converted to hydrogen peroxide in the cell by superoxide dismutase, whether hydrogen peroxide could mimic the effect of IL 1 in the induction of fos expression was investigated. RNA was extracted from chondrocytes (Kandel et al. supra) treated with H2 O2 for 30, 60 and 90 minutes and examined by Northern blot analysis using a fos cDNA probe.
(§2) Bovine articular chondrocytes were isolated and plated as previously described (Kandel R. A. et al. Biochim. Biophys. Acta. 1053, 130-134, 1990). In order to determine the effect of orthovanadate on IL 1 and PMA (phorbol ester) induced responses, chondrocytes were incubated with orthovanadate (100 μM) for 2 hours before stimulation with IL 1 (10 ng/ml) or PMA ([…]). collagenase production was determined by incubating chondrocytes for 24 hours with IL 1 or PMA and the cell conditioned medium was assayed for collagenase activity using an ELISA procedure as described previously (Kandel et al. supra) PLA2 activity was measured by incorporating ^3 H-arachidonic acid (^3 H-AA) into the cells and then incubating the cells with medium containing 1 mg/ml BSA, either alone or in the presence of IL 1 or PMA, for 10 min. as previously described (Conquer, J. A. […], Biochim. Biophys. Acta. 1134, 1-6). The amount of ^3 H-AA liberated into the supernatant was determined. To measure PGE2 production, chondrocytes were incubated for 6 hours in Ham's F12 medium, either alone or with IL 1 or PMA. The supernatant was analyzed by RIA using an antibody specific for PGE2 (Dr. S. A. Jones, Mount Sinai Hospital, Toronto, Can.). In order to examine the expression of c-fos and c-jun, chondrocytes were incubated for 1 hour in the presence of IL-1, PMA or AA (3 μM). Chondrocytes were washed in PBS and the total RNA extracted as previously described (Cruz. et al, 1991, Biochem. J. 277, 327-330). RNA samples were run on formaldehyde agarose gels and transferred to nylon membrane for northern analysis using cDNA probes for c-fos and c-jun.
Cells were also incubated as described above with 20 mM N-acetylcyateine for 20 min. and then incubated with IL 1 for an additional 1 or 12 hours. The RNA was extracted and examined by Northern blot analysis using cDNA probes for c-fos and collagenase.

[2] = system: jun; experiment: Northern blot analysis of jun mRNA expression in chondrocytes; format: cell-based, bovine; details: for expression of c-jun: stimulation, 1 hour, bovine chondrocytes, AA 3 μM; for jun expression in response to factors such as IL 1 or arachidonic acid: summary statement
Description: as §1
(§3) Although IL 1 stimulated superoxide production, it was not known whether IL 1 induced fos and jun expression was dependent on the production of superoxides. In order to elucidate this possibility, the effect of DPI on fos and jun mRNA levels induced by IL 1 was investigated. RNA from chondrocytes treated with IL 1 in the presence and absence of DPI were analyzed by Northern blot analysis using either fos or collagenase cDNA probes. […] Similar data has been obtained for IL 1 induced jun expression. Furthermore, inhibition of fos and jun expression by DPI was sufficient to suppress IL 1 induced and constitutive collagenase expression.
as §2

[3] = system: cells; experiment: Combined effect of H2O2 and orthovanadate on cell toxicity; format: cell-based; details: 1 mM H2O2, 24 hours; FIG. 9
Method: If the orthovanadate induced formation of hydroxyl radicals is responsible for cell toxicity, then adding exogenous H2 O2 should enhance the effects of orthovanadate. Accordingly, cells were incubated in media alone or containing 1 mM H2 O2 or 10 μM orthovanadate or both for 24 hours. The cells were harvested and cell viability determined.

[4] = system: collagenase; experiment: Northern blot analysis of collagenase mRNA expression in chondrocytes; format: cell-based, bovine
Description: as §1, §3
Cells were also incubated as described above with 20 mM N-acetylcyateine for 20 min. and then incubated with IL 1 for an additional 1 or 12 hours. The RNA was extracted and examined by Northern blot analysis using cDNA probes for c-fos and collagenase. N-acetylcysteine which is converted to GSH intracellularly was also found to reduce the levels of fos and collagenase expression in response to IL 1 (FIG. 5). Presumably the higher intracellular levels of GSH reduced H2 O2 and superoxide levels and suppressed the induction of fos and collagenase expression.

[5] = system: MDAY-D2; experiment: MDAY-D2 tumor growth in mice, combination therapy, Example 7; format: in vivo
Method: Twenty mice were injected subcutaneously with 2×10^5 cells on Day 1. At day 4, the mice were divided into four groups of five mice. Group one (control) received subcutaneous injections of 50 μl of water. Group two received daily intraperitoneal injections of 50 μl of 250 mM N-acetylcysteine. Group three received daily subcutaneous injections of 50 μl of 10 mg/ml of orthovanadate. Group four received daily intraperitoneal injections of 50 μl of […] N-acetylcysteine and 20 minutes later received 50 μl of subcutaneous injection of 50 μl of 10 mg/ml of orthovanadate. On day 10 the treatment was stopped. The animals were sacrificed on Day 13 and analyzed for tumor growth.

[6] = system: superoxides and H2O2; experiment: Levels of superoxides and H2O2 in cells (conclusion of Example 1); format: cell-based, bovine; details: conclusion from results
Method: as §2, with “Chondrocytes were washed in PBS and the total RNA extracted as previously described (Cruz. et al, 1991, Biochem. J. 277, 327-330). RNA samples were run on formaldehyde agarose gels and transferred to nylon membrane for northern analysis using cDNA probes for c-fos and c-jun.” left out

[7] = system: PLA2; experiment: 3H-arachidonic acid release by chondrocytes (PLA2 activity); format: cell-based, bovine; details: stimulation, IL 1 10 ng/ml or PMA 100 mg/ml, 10 min
Method: as §2, with “Chondrocytes were washed in PBS and the total RNA extracted as previously described (Cruz. et al, 1991, Biochem. J. 277, 327-330). RNA samples were run on formaldehyde agarose gels and transferred to nylon membrane for northern analysis using cDNA probes for c-fos and c-jun.” left out

[8] = system: collagenase; experiment: Collagenase production by chondrocytes (ELISA of conditioned medium); format: cell-based, bovine; details: stimulation, 24 hours, monolayer culture
Method: as §2, with “Chondrocytes were washed in PBS and the total RNA extracted as previously described (Cruz. et al, 1991, Biochem. J. 277, 327-330). RNA samples were run on formaldehyde agarose gels and transferred to nylon membrane for northern analysis using cDNA probes for c-fos and c-jun.” left out

[9] = system: PGE2; experiment: PGE2 production by chondrocytes (RIA); format: cell-based, bovine; details: stimulation, 6 hours, monolayer culture
Method: as §2, with “Chondrocytes were washed in PBS and the total RNA extracted as previously described (Cruz. et al, 1991, Biochem. J. 277, 327-330). RNA samples were run on formaldehyde agarose gels and transferred to nylon membrane for northern analysis using cDNA probes for c-fos and c-jun.” left out

[10] = system: KB8, KB8-5 and KB85-11 cells; details: background statement; cited from earlier work
[11] = system: Chondrocytes (reactive oxygen intermediates; NADPH oxidase); experiment: FACS analysis of reactive oxygen intermediates/superoxide production in chondrocytes (dihydroxyrhodamine); format: cell-based, bovine; details: inhibition, FIG. 1
Method: Chondrocytes (i.e. bovine chondrocytes plated as described in Kandel R. A. et al. Biochim. Biophys. Acta. 1053, 130-134, 1990) were incubated with dihydroxyrhodamine for 5 min (DHR) or for 4 hours in the absence (-IL 1 ) or presence of IL 1 (+IL 1), or in the presence of both IL 1 and the NADPH inhibitor, diphenyl iodonium, (+IL 1, +DPI).

[12] = system: carcinogenesis; details: reported by G. Shklar et al.; cited from earlier work
[13] = system: MDAY-D2; experiment: MDAY-D2 tumor growth in mice, three vanadyl compounds, Example 6B; format: in vivo; details: for effect on tumor growth, in words: 10 mg/ml s.c. daily; for animals that died: 10 mg/ml, 50 μl s.c. daily for 16 days, groups of five mice
Description: (§4) In order to examine the ability of vanadyl compounds to reduce tumor formation, growth and metastases, a specific animal model which allows investigation of all of these processes in the same animal was chosen. This model involves the injection of a metastatic haematopoietic cell line, MDAY-D2, into mice subcutaneously. These cells form a tumor at the site of injection and its size can be easily determined. In addition, these cells metastasize to the liver and metastases can be detected histologically after day 17 to 19. This model provides a very sensitive and reproducible approach to investigate the effect of vanadyl compounds on tumor growth and metastases.
In a separate experiment using the same animal model, the effect of orthovanadate, vanadyl sulphate and vanadyl hydroperoxide administration on tumor growth in vivo was examined. On Day 1, 20 mice were injected with 2×10^5 MDAY-D2 cell subcutaneously. The mice were divided into four groups of five mice. At day 5, the animals were injected subcutaneously with 50 μl of water alone or containing 10 mg/ml of orthovanadate, 10 mg/ml of vanadyl sulphate, or 10 mg/ml of vanadyl hydroperoxide. This treatment was continued daily for 16 days. At day 21, the mice were sacrificed and the tumors dissected and weighed.

[14] = system: MDAY-D2; experiment: Liver metastases of MDAY-D2 cells in mice (histology), Example 8; format: in vivo
Description: as §4
Livers were removed from animals treated as described above and prepared for histological examination. FIG. 16 compares liver sections from untreated (C), orthovanadate (VO)(500 μg/day) and vanadyl sulphate (VS)(500 μg/day) treated animals. Nodules are identified with an arrow.

[15] = system: mammary carcinogenesis; details: dietary; cited from earlier work
[16] = system: MDAY-D2 cells; experiment: Viability of MDAY-D2 cells with different vanadyl compounds; format: cell-based, mouse; details: 0-50 μM, 48 hours; FIG. 8
Method: Three different forms of vanadyl compounds were examined for their effect on viability of cancer cell lines. MDAY-D2 cells were incubated in media containing 0-50 μM orthovanadate, vanadyl sulphate, or vanadyl hydroperoxide for 48 hours. The cells were harvested and the number of viable cells determined. […] Although there were slight differences in sensitivity, the overall cell death was similar.

[17] = 20 mM N-acetylcysteine for 20 min, FIG. 5

Compound: CCCCC/C=C\C/C=C\C/C=C\C/C=C\CCCC(=O)O [AA, arachidonic acid]
- expression of c-fos [1]: stimulated
- expression of c-jun [2]: stimulated

Compound: OO [H2 O2, hydrogen peroxide]
- stimulation of fos expression ([1]; H2O2 for 30, 60 and 90 minutes, FIG. 3): stimulates
- cell toxicity of H2O2 alone [3]: small effect

Compound: CC(=O)N[C@@H](CS)C(=O)O [N-acetylcysteine]
- levels of fos expression in response to IL 1 [1, 17]: reduce
- fos expression in response to factors such as IL 1 or arachidonic acid [1]: completely inhibit
- levels of collagenase expression in response to IL 1 [4, 17]: reduce
- effect on slight toxic effects observed with orthovanadate alone ([5]; N-acetylcysteine co-administered): appeared to reduce the slight toxic effects
- tumor growth inhibition in vivo, in words ([5]; combination therapy): capable of reducing tumor growth to some extent
- levels of superoxides and H2O2 in cells [6]: indirectly reduce
- jun expression in response to factors such as IL 1 or arachidonic acid [2]: completely inhibit

Compound: CCCCCCCCCCCCCC(=O)OC1C(C)C2(O)C(C=C(CO)CC3(O)C(=O)C(C)=CC32)C2C(C)(C)C12OC(C)=O (centres unmarked) [PMA, reference compound]
- expression of c-fos [1]: stimulated
- release of 3H-AA [7]: induced
- expression of c-jun [2]: stimulated
- production of collagenase [8]: induced
- production of PGE2 [9]: induced

Compound: COc1cc2c(c(OC)c1OC)-c1ccc(OC)c(=O)cc1[C@@H](NC(C)=O)CC2 [colchicine]
- killing of drug resistant cell lines by conventional chemotherapeutic agents [10]: not killed

Compound: c1ccc([I+]c2ccccc2)cc1 [diphenyl iodonium (DPI), diphenyl iodonium]
- IL 1 induction of fos ([1]; Northern blot, FIG. 2): suppressed
- fos expression in response to factors such as IL 1 or arachidonic acid [1]: completely inhibit
- constitutive and IL 1 induced reactive oxygen intermediates [11]: completely inhibits
- IL 1 induced and constitutive collagenase expression ([4]; Northern blot, FIG. 2): suppress
- jun expression in response to factors such as IL 1 or arachidonic acid [2]: completely inhibit

Compound: COc1cccc2c1C(=O)c1c(O)c3c(c(O)c1C2=O)C[C@@](O)(C(=O)CO)C[C@@H]3O[C@H]1C[C@H](N)[C@H](O)[C@H](C)O1 [doxorubicin]
- killing of drug resistant cell lines by conventional chemotherapeutic agents [10]: not killed

Compound: N[C@@H](CCC(=O)N[C@@H](CS)C(=O)NCC(=O)O)C(=O)O [glutathione]
- anticancer activity [12]: reported to have anticancer activity

Compound: O=S(=O)([O-])[O-].[O]=[V+2] [vanadyl sulphate]
- effect on tumor growth, in words [13]: reduced tumors size in all of the animals; also recorded: less effective
- animals that died [13]: One animal died
- levels of metastases in liver ([14]; 500 μg/day, FIG. 16): did not have detectable levels of metastases
- effectiveness at preventing metastases ([14]; preliminary results, liver histology): effective at preventing metastases
- inhibition of chemically induced mammary carcinogenesis [15]: inhibit
- effectiveness in killing MDAY-D2 cells [16]: equally effective

Compound: CC[C@]1(O)C[C@@H]2CN(CCc3c([nH]c4ccccc34)[C@@](C(=O)OC)(c3cc4c(cc3OC)N(C)[C@H]3[C@@](O)(C(=O)OC)[C@H](OC(C)=O)[C@]5(CC)C=CCN6CC[C@]43[C@@H]65)C2)C1 [vinblastine]
- killing of drug resistant cell lines by conventional chemotherapeutic agents [10]: not killed

Compound: O=C1O[C@H]([C@@H](O)CO)C(O)=C1O [vitamin C, ascorbic acid]
- anticancer activity [12]: reported to have anticancer activity

Compound: Cc1c(C)c2c(c(C)c1O)CCC(C)(CCCC(C)CCCC(C)CCCC(C)C)O2 (stereo not drawn) [α-tocopherol]
- anticancer activity [12]: reported to have anticancer activity

Compound: CC1=C(/C=C/C(C)=C/C=C/C(C)=C/C=C/C=C(C)/C=C/C=C(C)/C=C/C2=C(C)CCCC2(C)C)C(C)(C)CCC1 [β-carotene]
- anticancer activity [12]: reported to have anticancer activity

Compound: vanadyl hydroperoxide
- effect on tumor growth, in words [13]: too toxic to evaluate its efficacy
- animals that died [13]: all five died
- effectiveness in killing MDAY-D2 cells [16]: equally effective

Compound: vitamin E
- anticancer activity [12]: reported to have anticancer activity
